These results are taken from ChEMBL document CHEMBL1127899, “Potent, acid-stable and orally active macrolide-type motilin receptor agonists, GM-611 and the derivatives” (Bioorg Med Chem Lett, 1994).

One test relates to Streptococcus pneumoniae. The experiment in a line: Antibacterial activity against Streptococcus pneumoniae No.12, activity expressed as MIC. Type of test: functional.
For the next test, the species on record is Oryctolagus cuniculus. Put plainly: Concentration required for in vitro smooth muscle contractile activity of the compound, expressed as negative logarithm of EC50. Type of test: functional. To be noted: Muscle tissue.
Test [1] addresses T1, Motilin receptor (Oryctolagus cuniculus, UniProt A5A4K8). Put plainly: Concentration required for in vitro motilin receptor binding, expressed as negative logarithm of IC50.
The subject of test [2] is Canis familiaris. The experiment in a line: Tested for in vivo smooth muscle contractile activity, expressed as MI100 (dose to give 100 of motor index after iv administration). Type of test: functional, Canis lupus familiaris, Muscle tissue.
The target in test [3] is T1, Motilin receptor. Put plainly: Concentration required for in vitro acid stability with hydrochloric acid solution (pH 2.5 ) at room temperature for 2 hr by assaying the solution for motilin receptor binding.
Test [4] has as its system Canis familiaris. The experiment in a line: Tested for in vivo smooth muscle contractile activity, expressed as MI100 (dose to give 100 of motor index after ig administration). Type of test: functional, Canis lupus familiaris, Muscle tissue.
Another test relates to Bacillus subtilis. The experiment in a line: Antibacterial activity against Bacillus subtilis ATCC 6633, activity expressed as MIC. The format is functional.
A further test has as its system Staphylococcus aureus. The experiment in a line: Antibacterial activity against Staphylococcus aureus 209P, activity expressed as MIC. Type of test: functional.
Another test relates to Klebsiella pneumoniae. Put plainly: Antibacterial activity against Klebsiella pneumoniae IFO 3512, activity expressed as MIC. The format is functional.
In the next test the test system is Escherichia coli. The experiment in a line: Antibacterial activity against Escherichia coli NIHJ JC-2, activity expressed as MIC. The format is functional.

Values after ≈ are worked out from the molar mass of the structure shown.

T1 sequence (A5A4K8 whole entry): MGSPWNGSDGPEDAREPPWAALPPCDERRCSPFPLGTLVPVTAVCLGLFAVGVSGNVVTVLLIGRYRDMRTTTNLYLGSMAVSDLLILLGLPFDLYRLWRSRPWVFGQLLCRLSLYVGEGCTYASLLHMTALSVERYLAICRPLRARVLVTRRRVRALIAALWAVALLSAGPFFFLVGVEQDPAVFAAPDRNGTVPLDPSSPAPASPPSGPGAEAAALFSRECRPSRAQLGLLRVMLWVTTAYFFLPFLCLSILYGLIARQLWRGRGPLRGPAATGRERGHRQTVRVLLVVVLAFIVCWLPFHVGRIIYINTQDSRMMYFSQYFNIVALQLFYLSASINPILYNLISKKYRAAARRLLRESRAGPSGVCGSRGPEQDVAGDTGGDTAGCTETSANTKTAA

What is called MIC is the smallest concentration in the dilution series that meets the test's criterion for growth inhibition. Low values mean a more susceptible organism, high ones a less susceptible organism. As a reminder, the EC50 is the concentration giving half of the maximal effect. Low values mean greater potency, high ones weaker potency. A word on the IC50: it is the concentration at which inhibition is half-maximal. Lower therefore signals greater potency. The molecule `CCC1OC(=O)C(C)C(O[C@H]2C[C@@](C)(OC)[C@@H](O)C(C)O2)C(C)[C@@H](OC2OC(C)CC(N(C)CC)[C@H]2O)[C@]2(C)CC(C)=C(O2)[C@H](C)C(=O)[C@]1(C)OC` (some centres undefined) displayed an MIC against Streptococcus pneumoniae of 50 µg/mL (≈ 67.4 µM). In the test filed under Oryctolagus cuniculus, the midpoint of the response, the EC50, lay at 43.7 nM. For the same molecule, the values for the IC50 at Motilin receptor [1] and on Motilin receptor [3] were 3.8 nM and 6.46 nM, respectively. The MI100 in the test on Canis familiaris [2] came out at 1.1 µg/kg; in the test on Canis familiaris [4], 4.3 µg/kg.
The molecule `CC[C@H]1OC(=O)[C@H](C)[C@@H](O[C@H]2C[C@@](C)(OC)[C@@H](O)[C@H](C)O2)[C@H](C)[C@@H](O[C@@H]2O[C@H](C)C[C@H](N(C)C)[C@H]2O)[C@@]2(C)CC(C)=C(O2)[C@H](C)[C@@H](O)[C@]1(C)O` gave an EC50 in the test listed under Oryctolagus cuniculus of 41.7 nM. For the same molecule, the results for the IC50 at Motilin receptor [1] and on Motilin receptor [3] were 3.39 nM and 224 nM, respectively. This molecule also gave an MI100 with Canis familiaris [2] of 1 µg/kg.
For `CCC1OC(=O)C(C)C(O[C@H]2C[C@@](C)(OC)[C@@H](O)C(C)O2)C(C)[C@@H](OC2OC(C)CC(N(C)C)[C@H]2O)[C@]2(C)CC(C)C3(O[C@]1(C)[C@H](O)[C@H]3C)O2` (some centres undefined) the same measures were over 10000 nM, 155 nM, 170 nM and over 70 µg/kg.
Turning to `CCC1OC(=O)C(C)C(O[C@H]2C[C@@](C)(OC)[C@@H](O)C(C)O2)C(C)[C@@H](OC2OC(C)CC(N(C)C(C)C)[C@H]2O)[C@]2(C)CC(C)=C(O2)[C@H](C)C(=O)[C@]1(C)OC` (some centres undefined), in the test filed under Oryctolagus cuniculus, the EC50 was 38.9 nM. Moreover, the IC50 at Motilin receptor [1] is 6.03 nM; at Motilin receptor [3], 7.94 nM. Further, the MI100 amounted to 1 µg/kg in the test on Canis familiaris [2] and 1.5 µg/kg in the test on Canis familiaris [4].
In the case of `CCC1OC(=O)C(C)C(O[C@H]2C[C@@](C)(OC)[C@@H](O)C(C)O2)C(C)[C@@H](OC2OC(C)CC(N(C)CC)[C@H]2O)[C@]2(C)CC(C)=C(O2)[C@H](C)[C@@H](O)[C@]1(C)O` (some centres undefined), the figures for the minimal inhibitory concentration (MIC) with Streptococcus pneumoniae and in the test on Bacillus subtilis were 25 µg/mL (≈ 34.2 µM) and 100 µg/mL (≈ 137 µM), respectively. The EC50 in the test listed under Oryctolagus cuniculus was 47.9 nM. The IC50 at Motilin receptor [1] is 3.16 nM; at Motilin receptor [3] it was 302 nM. The MI100 was determined as 0.9 µg/kg in the test with Canis familiaris [2] and 14.9 µg/kg in the test with Canis familiaris [4].
For `CCC1OC(=O)C(C)C(O[C@H]2C[C@@](C)(OC)[C@@H](O)C(C)O2)C(C)[C@@H](OC2OC(C)CC(N(C)C)[C@H]2O)[C@]2(C)CC(C)=C(O2)[C@H](C)C(=O)[C@]1(C)OC` (some centres undefined), the MIC came out at 3.1 µg/mL (≈ 4.26 µM) in the test on Streptococcus pneumoniae, 13 µg/mL (≈ 17.9 µM) in the test on Staphylococcus aureus, 6.3 µg/mL (≈ 8.65 µM) in the test on Bacillus subtilis and 100 µg/mL (≈ 137 µM) against Klebsiella pneumoniae. For the same molecule, in the test filed under Oryctolagus cuniculus, a half-maximal response (EC50) required 117 nM. The values for the IC50 on Motilin receptor [1] and on Motilin receptor [3] were 9.12 nM and 8.91 nM, respectively. For the same molecule, the MI100 with Canis familiaris [2] stood at 2.9 µg/kg; with Canis familiaris [4], 2.4 µg/kg.
On to `CCC1OC(=O)C(C)C(O[C@H]2C[C@@](C)(OC)[C@@H](O)C(C)O2)C(C)[C@@H](OC2OC(C)CC(N(C)C)[C@H]2O)[C@@](C)(O)C[C@@H](C)C(=O)[C@H](C)[C@@H](O)[C@]1(C)O` (some centres undefined), for which the MIC worked out at 0.1 µg/mL (≈ 0.136 µM) against Streptococcus pneumoniae; 0.39 µg/mL (≈ 0.531 µM) against Staphylococcus aureus; 0.39 µg/mL (≈ 0.531 µM) in the test with Bacillus subtilis; 100 µg/mL (≈ 136 µM) with Escherichia coli; 6.3 µg/mL (≈ 8.58 µM) in the test on Klebsiella pneumoniae. This molecule gave a concentration for a half-maximal effect (EC50) in the test listed under Oryctolagus cuniculus of 316 nM. The IC50 at Motilin receptor [1] is 43.7 nM; at Motilin receptor [3] it was 70.8 nM. The same molecule returned an MI100 in the test on Canis familiaris [2] of 32.3 µg/kg.
